Structures are written as SMILES. Active and inactive are the calls of the source. The rule behind the calls is not given here.

For one compound, inhibition results are on record in ChEMBL document CHEMBL4392828, “Structural modification of indomethacin toward selective inhibition of COX-2 with a significant increase in van der Waals contributions” (Bioorg Med Chem, 2019).

This experiment deals with T1, Prostaglandin G/H synthase 1 (Ovis aries) (UniProt P05979).
T1 sequence (whole entry): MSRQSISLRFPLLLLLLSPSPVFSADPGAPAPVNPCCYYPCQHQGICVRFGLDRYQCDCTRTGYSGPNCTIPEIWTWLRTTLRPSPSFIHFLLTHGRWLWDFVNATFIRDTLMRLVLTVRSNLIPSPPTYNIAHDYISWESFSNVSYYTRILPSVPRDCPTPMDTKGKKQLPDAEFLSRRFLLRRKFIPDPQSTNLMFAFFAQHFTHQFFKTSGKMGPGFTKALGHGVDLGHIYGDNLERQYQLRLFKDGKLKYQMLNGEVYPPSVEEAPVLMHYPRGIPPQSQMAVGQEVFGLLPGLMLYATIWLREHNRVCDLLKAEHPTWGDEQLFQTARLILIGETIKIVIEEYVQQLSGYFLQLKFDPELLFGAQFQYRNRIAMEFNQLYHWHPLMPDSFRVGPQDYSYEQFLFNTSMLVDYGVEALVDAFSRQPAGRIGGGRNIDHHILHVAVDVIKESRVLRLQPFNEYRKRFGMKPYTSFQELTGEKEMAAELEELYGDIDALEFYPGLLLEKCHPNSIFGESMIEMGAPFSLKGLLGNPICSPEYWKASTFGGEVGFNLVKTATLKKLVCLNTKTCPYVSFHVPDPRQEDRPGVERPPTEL
Put plainly: Inhibition of ovine COX1 assessed as reduction in PGF2alpha production up to 2000 nM using arachidonic acid as substrate incubated for 10 mins by EIA method relative to indomethacin.

In the case of `COc1ccc2c(c1)c(CC(=O)O)c(/C=C/C(F)(F)F)n2C(=O)c1ccc(Cl)cc1`, the inhibition result was “inactive”.
